What was measured:
[1] = target: T1, G12V-mutant human KRAS (amino acid residues 1-188) (Homo sapiens, UniProt P01116, G12V); experiment: KRAS Binding Competition Assay (AlphaScreen; biotinylated KRpep-2d analogue), G12V; details: geometric mean, read-out: KRAS GMean IC50 (uM) MUTATION: G12V
T1 construct: G12V-mutant human KRAS (amino acid residues 1-188) with FLAG tag was purified from E. coli; made in house; host or cells: E. coli

[2] = target: T2, G12D-mutant human KRAS (amino acid residues 1-188) (Homo sapiens, UniProt P01116, G12D); experiment: KRAS Binding Disruption Assay (AlphaScreen; biotinylated KRpep-2d analogue or RAF1-RBD), G12D; details: KRAS G12D; geometric mean; read-out: KRAS GMean IC50 (uM) MUTATION: G12D
T2 construct: G12D or G12C-mutant human KRAS (amino acid residues 1-188) with FLAG tag; made in house; host or cells: E. coli
How it was run: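 Displacement format with mutant KRAS, biotinylated KRpep-2d analogue or RAF1-RBD (5-20 nM each) at pH 7.5 with 5 mM MgCl2.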

| Structure (SMILES) | IC50 [1] [µM] | IC50 [2] [µM] |
| --- | --- | --- |
| CN1CCC[C@H]1COc1nc(N2C[C@H]3CC[C@@H](C2)N3)c2cc(F)c(N3CC(O)Cc4ccccc43)c(F)c2n1 (stereo partly drawn) [P-0344, 1-(4-((1R,5S)-3,8-diazabicyclo[3.2.1]octan-3-yl)-6,8-difluoro-2-(((S)-1-methylpyrrolidin-2-yl)methoxy)quinazolin-7-yl)-1,2,3,4-tetrahydroquinolin-3-ol] | 100 to 1000 | 0.0001 to 10 |
| O=C1c2ccccc2C(=O)N1Cc1nc(N2C[C@H]3CC[C@@H](C2)N3)c2cc(Cl)c(-c3c(O)cccc3F)c(F)c2n1 [P-0446, 2-((4-((1R,5S)-3,8-diazabicyclo[3.2.1]octan-3-yl)-6-chloro-8-fluoro-7-(2-fluoro-6-hydroxyphenyl)quinazolin-2-yl)methyl)isoindoline-1,3-dione] | 10 to 100 | 10 to 100 |
| CN1CCC[C@H]1COc1nc(N2C[C@H]3CC[C@@H](C2)N3)c2ccc(-c3c(F)ccc(O)c3F)cc2n1 [P-0164, 3-(4-((1R,5S)-3,8-diazabicyclo[3.2.1]octan-3-yl)-2-(((S)-1-methylpyrrolidin-2-yl)methoxy)quinazolin-7-yl)-2,4-difluorophenol] | 100 to 1000 | 10 to 100 |
| CN1CCC[C@H]1COc1nc(N2C[C@H]3CC[C@@H](C2)N3)c2ccc(-c3ccc(Cl)c(N)c3)cc2n1 [P-0177, 5-(4-((1R,5S)-3,8-diazabicyclo[3.2.1]octan-3-yl)-2-(((S)-1-methylpyrrolidin-2-yl)methoxy)quinazolin-7-yl)-2-chloroaniline] | 10 to 100 | 10 to 100 |
| CN1CCC[C@H]1COc1nc(N2[C@@H]3CC[C@H]2CN(C(=O)CCC2CCCNC2)C3)c2ccc(-c3cc(O)cc4ccccc34)cc2n1 (stereo partly drawn) [P-0192, 1-((1R,5S)-8-(7-(3-hydroxynaphthalen-1-yl)-2-(((S)-1-methylpyrrolidin-2-yl)methoxy)quinazolin-4-yl)-3,8-diazabicyclo[3.2.1]octan-3-yl)-3-(piperidin-3-yl)propan-1-one] | 10 to 100 | 10 to 100 |
| CN1CCC(Cc2nc(N3[C@@H]4CC[C@H]3CNC4)c3ccc(-c4cc(O)cc5ccccc45)cc3n2)CC1 [P-0201, 4-(4-((1R,5S)-3,8-diazabicyclo[3.2.1]octan-8-yl)-2-((1-methylpiperidin-4-yl)methyl)quinazolin-7-yl)naphthalen-2-ol] | 10 to 100 | 0.0001 to 10 |
| CN1C(=O)C(CC(=O)N2[C@@H]3CC[C@H]2CN(c2nc(OC[C@@H]4CCCN4C)nc4cc(-c5cc(O)cc6ccccc56)ccc24)C3)N(C)C1=O (stereo partly drawn) [P-0369, 5-(2-((1R,5S)-3-(7-(3-hydroxynaphthalen-1-yl)-2-(((S)-1-methylpyrrolidin-2-yl)methoxy)quinazolin-4-yl)-3,8-diazabicyclo[3.2.1]octan-8-yl)-2-oxoethyl)-1,3-dimethylimidazolidine-2,4-dione] | 10 to 100 | 0.0001 to 10 |
| CN1CCC[C@H]1COc1nc(N2C[C@H]3CC[C@@H](C2)N3C(=O)CC2SC(N)=NC2=O)c2ccc(-c3cc(O)cc4ccccc34)cc2n1 (stereo partly drawn) [P-0370, 2-amino-5-(2-((1R,5S)-3-(7-(3-hydroxynaphthalen-1-yl)-2-(((S)-1-methylpyrrolidin-2-yl)methoxy)quinazolin-4-yl)-3,8-diazabicyclo[3.2.1]octan-8-yl)-2-oxoethyl)thiazol-4(5H)-one] | 0.0001 to 10 | 0.0001 to 10 |
| O=S(=O)(N[C@@H]1CCNC1)N1[C@@H]2CC[C@H]1CN(c1nc(OCC34CCCN3CCC4)nc3c(F)c(-c4cc(O)cc5ccccc45)ccc13)C2 [P-0284, (1R,5S)-3-(8-fluoro-7-(3-hydroxynaphthalen-1-yl)-2-((tetrahydro-1H-pyrrolizin-7a(5H)-yl)methoxy)quinazolin-4-yl)-N-((R)-pyrrolidin-3-yl)-3,8-diazabicyclo[3.2.1]octane-8-sulfonamide] | 0.0001 to 10 | 0.0001 to 10 |
| CONC(=O)N1C[C@H]2CC[C@@H](C1)N2c1nc(OC[C@@H]2CCCN2C)nc2cc(-c3cc(O)cc4ccccc34)ccc12 [P-0214, (1R,5S)-8-(7-(3-hydroxynaphthalen-1-yl)-2-(((S)-1-methylpyrrolidin-2-yl)methoxy)quinazolin-4-yl)-N-methoxy-3,8-diazabicyclo[3.2.1]octane-3-carboxamide] | 10 to 100 | 10 to 100 |
| O=C(NCCN1CCOCC1)N1[C@@H]2CC[C@H]1CN(c1nc(OCC34CCCN3CCC4)nc3cc(-c4cc(O)cc5ccccc45)ccc13)C2 [P-0029, (1R,5S)-3-(7-(3-hydroxynaphthalen-1-yl)-2-((tetrahydro-1H-pyrrolizin-7a(5H)-yl)methoxy)quinazolin-4-yl)-N-(2-morpholinoethyl)-3,8-diazabicyclo[3.2.1]octane-8-carboxamide] | 0.0001 to 10 | 0.0001 to 10 |
| CN1CCC[C@H]1COc1nc(N2C[C@H]3CC[C@@H](C2)N3)c2ccc(-c3nc(N)cc4ccccc34)c(F)c2n1 [P-0378, 1-(4-((1R,5S)-3,8-diazabicyclo[3.2.1]octan-3-yl)-8-fluoro-2-(((S)-1-methylpyrrolidin-2-yl)methoxy)quinazolin-7-yl)isoquinolin-3-amine] | 10 to 100 | 0.0001 to 10 |

Next, values leading:

| IC50 [1] [µM] | IC50 [2] [µM] | Structure (SMILES) |
| --- | --- | --- |
| 10 to 100 | 0.0001 to 10 | Cc1[nH]c2ccccc2c1-c1ccc2c(N3C[C@H]4CC[C@@H](C3)N4)nc(OCC34CCCN3CCC4)nc2c1F [P-0626, 4-((1R,5S)-3,8-diazabicyclo[3.2.1]octan-3-yl)-8-fluoro-7-(2-methyl-1H-indol-3-yl)-2-((tetrahydro-1H-pyrrolizin-7a(5H)-yl)methoxy)quinazoline] |
| 100 to 1000 | 100 to 1000 | CN1CCC[C@H]1COc1nc(N2C[C@H]3CC[C@@H](C2)N3)c2ccc(-c3ccc(CO)s3)cc2n1 [P-0182, (5-(4-((1R,5S)-3,8-diazabicyclo[3.2.1]octan-3-yl)-2-(((S)-1-methylpyrrolidin-2-yl)methoxy)quinazolin-7-yl)thiophen-2-yl)methanol] |
| 0.0001 to 10 | 0.0001 to 10 | NC(=O)CCc1nc(N2[C@@H]3CC[C@H]2CNC3)c2ccc(-c3cc(O)cc4ccccc34)cc2n1 [P-0233, 3-(4-((1R,5S)-3,8-diazabicyclo[3.2.1]octan-8-yl)-7-(3-hydroxynaphthalen-1-yl)quinazolin-2-yl)propanamide] |
| 0.0001 to 10 | 10 to 100 | CN1CCC[C@H]1COc1nc(N2[C@@H]3CC[C@H]2CN(C(=O)c2c[nH]cn2)C3)c2ccc(-c3cc(O)cc4ccccc34)cc2n1 [P-0350, ((1R,5S)-8-(7-(3-hydroxynaphthalen-1-yl)-2-(((S)-1-methylpyrrolidin-2-yl)methoxy)quinazolin-4-yl)-3,8-diazabicyclo[3.2.1]octan-3-yl)(1H-imidazol-4-yl)methanone] |
| 10 to 100 | 10 to 100 | CN1CCC[C@H]1COc1nc(N2[C@@H]3CC[C@H]2CN(C(=O)C(O)CO)C3)c2ccc(-c3cc(O)cc4ccccc34)cc2n1 (stereo partly drawn) [P-0219, 2,3-dihydroxy-1-((1R,5S)-8-(7-(3-hydroxynaphthalen-1-yl)-2-(((S)-1-methylpyrrolidin-2-yl)methoxy)quinazolin-4-yl)-3,8-diazabicyclo[3.2.1]octan-3-yl)propan-1-one] |
| 10 to 100 | 10 to 100 | C[C@H](O)C(=O)N1C[C@H]2CC[C@@H](C1)N2c1nc(OC[C@@H]2CCCN2C)nc2cc(-c3cc(O)cc4ccccc34)ccc12 [P-0221, (S)-2-hydroxy-1-((1R,5S)-8-(7-(3-hydroxynaphthalen-1-yl)-2-(((S)-1-methylpyrrolidin-2-yl)methoxy)quinazolin-4-yl)-3,8-diazabicyclo[3.2.1]octan-3-yl)propan-1-one] |

From patent US20230081426A1, “COMPOUNDS AND METHODS FOR KRAS MODULATION AND INDICATIONS THEREFOR” (Plexxikon Inc., priority 2020, published 2023)
